Measured values as given in publication PMC8623418, “Novel Multitarget Hydroxamic Acids with a Natural Origin CAP Group against Alzheimer’s Disease: Synthesis, Docking and Biological Evaluation” (Pharmaceutics, 2021).
Like-named read-outs stand apart in the source and are kept apart here.

Assays:
[1] = test system: lipid peroxidation (LPO) of rat brain homogenate; experiment: Lipid peroxidation (LPO) of rat brain homogenate, TBARS test; type: biochemical; conditions: substances at 100 μM, mean ± SEM; for % of Activity, Inhibition of LPO, Fe (II): Fe (II)-induced; for % of Activity, Inhibition of LPO, t-BHP: t-BHP-induced
Protocol: To obtain the brain homogenate, rats preliminarily anesthetized with CO2 were decapitated with a guillotine. The brain was homogenized in a buffer containing KCl (120 mM) and HEPES (20 mM), pH = 7.4 at 4 °C, and centrifuged at 1500 rpm to obtain a supernatant. The protein was quantified according to the standard microbiuret method.
To investigate the effect of the compounds on lipid peroxidation (LPO) of rat brain homogenate, we used the modified version of the TBARS test, which is based on the reaction of 2-thiobarbituric acid with the end LPO product—malonic dialdehyde (MDA). The plate well, according to the experimental scheme, contained the compounds under study (100 μM), rat brain homogenate (2 mg/mL), as well as ferrous iron ions ([…]) at a concentration of 500 μM and 1.6 mM tert-butyl hydroxyperoxide as an initiator. After 30 min of incubation at 37 °C, TBARS reagent was added to all samples, incubated for 90 min at 90 °C, and centrifuged at 6000 rpm for 15 min. The optical density of the selected supernatant was measured on a Victor 3 plate reader (Perkin Elmer) at λ = 540 nm.
A rat brain homogenate preparation containing fragments of cell membranes was used as a model system to investigate the antioxidant activity of the hydroxamic acids. To initiate the process of lipid peroxidation, ferrous ions were used to trigger the Fenton reaction, during which the iron valence changes and a highly reactive hydroxyl radical is formed, and tert-butyl hydroxyperoxide as a direct source of free radicals.

[2] = DPPH test of antiradical activity; conditions: substances at 100 μM, mean ± SEM
Protocol: The DPPH test was used to examine antiradical activity based on the ability of a stable chromogen radical of 2,2-diphenyl-1-picrylhydrazyl (DPPH) to remove a hydrogen atom, which is accompanied by a change in the absorption maximum in the electronic absorption spectra. The amount of reduced DPPH was measured using a Cytation ™ 3 multifunctional plate analyzer (BioTek Instruments, Inc., Winooski, VT, USA) at a wavelength of 517 nm.
The antiradical activity of the test compounds was evaluated by the DPPH test, based on the ability of antioxidants to donate an electron to the stable chromogen radical DPPH, converting it into a nonradical form and neutralizing its activity. […] The chromogenic free radical DPPH used in this test has a large size, and substances even with a similar chemical structure may have different antiradical properties due to spatially difficult access.

SH-SY5Y cells = experiment: MTT cell viability, SH-SY5Y; type: cell-based; conditions: Homo sapiens, MTT test
Protocol: (§1) The effect of the hydroxamic acids on the viability of cells obtained from human embryonic kidneys, HEK 293, as well as the native form of human neuroblastoma, SH-SY5Y, was evaluated in the MTT test. Using a multifunctional flatbed analyzer, Cytation™3 (BioTek Instruments, Inc., Winooski, VT, USA), the optical density was determined at a wavelength of 530 nm. Based on the dose-dependent curves, the concentration values leading to 50% inhibition of cell population growth (IC50) were calculated.
(§2) Due to the fact that most compounds of the class of hydroxamic acids have high cytotoxic activity and are mainly used as anticancer drugs, their use as neuroprotective drugs is limited. Since the goal of our work was to search for agents for the pharmacological correction of neurodegenerative diseases, a necessary part of the biological activity study of the synthesized hydroxamic acids was to determine their effect on the survival of cell cultures. In our work, we used neuron-like neuroblastoma cells SH-SY5Y and a healthy cell line isolated from the human embryonic kidney, HEK 293.

HEK 293 cells = experiment: MTT cell viability, HEK 293; type: cell-based; conditions: Homo sapiens, HEK293; HEK-293, MTT test
Protocol: as §1, §2

HDAC6 = molecular target: T1, HDAC6 (Homo sapiens, UniProt Q9UBN7); experiment: HDAC6 enzyme activity, FLUOR DE LYS fluorometric kit; type: biochemical
T1 construct: purchased Enzo Life Sciences (Enzo Biochem, New York, NY, USA)
T1 sequence (Q9UBN7 1-1215): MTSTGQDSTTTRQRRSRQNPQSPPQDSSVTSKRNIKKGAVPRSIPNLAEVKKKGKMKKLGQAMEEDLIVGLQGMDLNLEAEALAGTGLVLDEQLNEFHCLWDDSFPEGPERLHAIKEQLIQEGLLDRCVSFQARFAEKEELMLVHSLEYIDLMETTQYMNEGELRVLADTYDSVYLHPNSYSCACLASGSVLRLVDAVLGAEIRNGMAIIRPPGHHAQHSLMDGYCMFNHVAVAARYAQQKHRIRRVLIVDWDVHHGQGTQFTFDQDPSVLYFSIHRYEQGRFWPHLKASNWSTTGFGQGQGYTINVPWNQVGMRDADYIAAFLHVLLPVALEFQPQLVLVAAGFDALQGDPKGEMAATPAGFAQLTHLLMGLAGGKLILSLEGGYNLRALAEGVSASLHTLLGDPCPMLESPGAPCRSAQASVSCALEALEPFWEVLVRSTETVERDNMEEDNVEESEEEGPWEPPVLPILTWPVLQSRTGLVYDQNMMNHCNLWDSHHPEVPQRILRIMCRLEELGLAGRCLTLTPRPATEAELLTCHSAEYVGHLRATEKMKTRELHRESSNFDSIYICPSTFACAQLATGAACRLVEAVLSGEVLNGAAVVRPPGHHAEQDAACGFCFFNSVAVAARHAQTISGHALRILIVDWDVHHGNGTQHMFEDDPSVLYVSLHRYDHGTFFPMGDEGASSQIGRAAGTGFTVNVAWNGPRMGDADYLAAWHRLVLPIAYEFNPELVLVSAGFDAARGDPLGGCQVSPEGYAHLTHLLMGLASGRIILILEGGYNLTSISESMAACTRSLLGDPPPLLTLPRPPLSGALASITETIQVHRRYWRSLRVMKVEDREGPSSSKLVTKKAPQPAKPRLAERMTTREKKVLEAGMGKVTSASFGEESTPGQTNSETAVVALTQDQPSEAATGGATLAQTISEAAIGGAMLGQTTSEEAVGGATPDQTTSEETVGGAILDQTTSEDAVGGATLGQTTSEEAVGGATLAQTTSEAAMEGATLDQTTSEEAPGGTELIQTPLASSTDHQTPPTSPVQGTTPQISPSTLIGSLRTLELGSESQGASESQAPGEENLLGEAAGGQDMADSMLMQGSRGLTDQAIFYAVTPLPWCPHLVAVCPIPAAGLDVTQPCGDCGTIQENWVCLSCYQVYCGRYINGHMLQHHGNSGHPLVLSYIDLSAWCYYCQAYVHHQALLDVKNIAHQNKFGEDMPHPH

β-amyloid 1–40 = β-amyloid 1–40 aggregation, Thioflavin T fluorescence; type: biochemical; conditions: 100 μM, 72 h incubation
Protocol: (§3) The effect of the studied compounds on the aggregation of β-amyloid (1–40/1–42) was analyzed using the method of recording Thioflavin T fluorescence (10 µM) for 72 h at 37 °C. The fluorescence signal was measured using a multifunctional flatbed analyzer, the Cytation ™ 3 (BioTek Instruments, Inc., Winooski, VT, USA), at λex = 450 nm, λem = 480 nm.
(§4) The effect of hydroxamic acids on the stage of aggregation of the pathological β-amyloid peptide was investigated for 72 h using two model systems—fragments Aβ1–40 and Aβ1–42. The fluorophore Thioflavin T was used as an indicator of the ongoing fibrillation process, the interaction of which with proteins in the state of amyloid fibrils leads to an increase in the fluorescence signal.

β-amyloid 1–42 = test system: T2, β-amyloid 1–42; experiment: β-amyloid 1–42 aggregation, Thioflavin T fluorescence; type: biochemical; conditions: 100 μM, 72 h incubation
T2 construct: fragments Aβ1–40 and Aβ1–42
Protocol: as §3, §4

[3] = mean ± SEM, read-out: IC50 HDAC6 Inhibitory Activity

Cc1c(C)c2c(c(C)c1O)CCC(C)(C(=O)O)O2 (stereo not drawn) [Trolox, reference compound]
% of Activity, Inhibition of LPO, Fe (II) [1]: 97.21 ± 4.09%
% of Activity, Inhibition of LPO, t-BHP [1]: 99.11 ± 3.72%

CC1(C)[C@H]2CC[C@](C)(C2)[C@H]1NC(=O)CCCCCCC(=O)NO [compound 13, N^1-Hydroxy-N^8-((1R,2R,4S)-1,3,3-Trimethylbicyclo[2.2.1]heptan-2-yl)octanediamide]
melting point: 45.1 °C
% of Activity, Antiradical Activity [2]: - (The ‘-’ mark indicates the lack of activity of the test substances (≤10%) in a particular test)
IC50 (SH-SY5Y cells): > 100 µM
IC50 (HEK 293 cells): > 100 µM
IC50 (HDAC6; [3]): 9.44 ± 0.74 µM
% of Activity, Inhibition of LPO, Fe (II) [1]: 28.90 ± 3.38%
% of Activity, Inhibition of LPO, t-BHP [1]: 24.02 ± 3.44%

CC(/C=C/C(=O)NO)=C\[C@@H](C)C(=O)c1ccc(N(C)C)cc1 [Trich. A, Trichostatin A, reference compound]
% of Activity, Antiradical Activity [2]: - (The ‘-’ mark indicates the lack of activity of the test substances (≤10%) in a particular test)
% of Activity, Inhibition of LPO, Fe (II) [1]: - (The ‘-’ mark indicates the lack of activity of the test substances (≤10%) in a particular test)
% of Activity, Inhibition of LPO, t-BHP [1]: - (The ‘-’ mark indicates the lack of activity of the test substances (≤10%) in a particular test)

CC1(C)[C@@H]2CC[C@@]1(C)[C@H](NC(=O)CCCCCCCC(=O)NO)C2 [compound 12, N^1-Hydroxy-N^9-((1R,2R,4R)-1,7,7-Trimethylbicyclo [2.2.1]heptan-2-yl)nonanediamide]
melting point: 50.4 °C
% of Activity, Antiradical Activity [2]: - (The ‘-’ mark indicates the lack of activity of the test substances (≤10%) in a particular test)
IC50 (SH-SY5Y cells): > 100 µM
IC50 (HEK 293 cells): > 100 µM
IC50 (HDAC6; [3]): 4.06 ± 0.48 µM
% of Activity, Inhibition of LPO, Fe (II) [1]: 44.02 ± 1.57%
% of Activity, Inhibition of LPO, t-BHP [1]: 30.36 ± 1.98%

CC1(C)[C@H]2CC[C@](C)(C2)[C@H]1NC(=O)CCCCCCCC(=O)NO [compound 14, N^1-Hydroxy-N^9-((1R,2R,4S)-1,3,3-Trimethylbicyclo[2.2.1]heptan-2-yl)nonanediamide]
melting point: 44.9 °C
% of Activity, Antiradical Activity [2]: - (The ‘-’ mark indicates the lack of activity of the test substances (≤10%) in a particular test)
IC50 (SH-SY5Y cells): > 100 µM
IC50 (HEK 293 cells): > 100 µM
IC50 (HDAC6; [3]): 4.48 ± 0.13 µM
% of Activity, Inhibition of LPO, Fe (II) [1]: 37.91 ± 1.08%
% of Activity, Inhibition of LPO, t-BHP [1]: 22.62 ± 4.31%

O=C(NO)C12CC3CC(CC(C3)C1)C2 [compound 1, N-Hydroxyadamantane-1-Carboxamide]
melting point: 149 to 149.3 °C
% of Activity, Antiradical Activity [2]: - (The ‘-’ mark indicates the lack of activity of the test substances (≤10%) in a particular test)
IC50 (SH-SY5Y cells): > 100 µM
IC50 (HEK 293 cells): > 100 µM
% of Activity, Inhibition of LPO, Fe (II) [1]: - (The ‘-’ mark indicates the lack of activity of the test substances (≤10%) in a particular test)
% of Activity, Inhibition of LPO, t-BHP [1]: - (The ‘-’ mark indicates the lack of activity of the test substances (≤10%) in a particular test)

O=C(NO)C1C2CC3CC(C2)CC1C3 (stereo not drawn) [compound 2, N-Hydroxyadamantane-2-Carboxamide]
melting point: 173.4 °C
% of Activity, Antiradical Activity [2]: 32.02 ± 3.33%
IC50 (SH-SY5Y cells): > 100 µM
IC50 (HEK 293 cells): > 100 µM
% of Activity, Inhibition of LPO, Fe (II) [1]: - (The ‘-’ mark indicates the lack of activity of the test substances (≤10%) in a particular test)
% of Activity, Inhibition of LPO, t-BHP [1]: - (The ‘-’ mark indicates the lack of activity of the test substances (≤10%) in a particular test)

CC1(C)C(NC(=O)/C=C/c2ccc(C(=O)NO)cc2)[C@@]2(C)CC[C@H]1C2 (stereo partly drawn) [compound 24, N-Hydroxy-4-((E)-3-Oxo-3-(((1S,4S)-1,3,3-Trimethylbicyclo[2.2.1]heptan-2-yl)amino)prop-1-en-1-yl)benzamide]
Effect on β-amyloid 1–40 aggregation (β-amyloid 1–40): noticeable fibrillation inhibition
% of Activity, Antiradical Activity [2]: 20.32 ± 0.41%
Effect on β-amyloid 1–42 aggregation (β-amyloid 1–42): noticeable fibrillation inhibition
IC50 (SH-SY5Y cells): 52 ± 2.61 µM
IC50 (HEK 293 cells): 60.2 ± 1 µM
IC50 (HDAC6; Table S2, used for correlation with pKi, read-out: pIC50 (from experimental HDAC6 IC50) (converted)): 15.3 µM
IC50 (HDAC6; [3]): ≤ 6.5 µM
% of Activity, Inhibition of LPO, Fe (II) [1]: 34.16 ± 1.37%
% of Activity, Inhibition of LPO, t-BHP [1]: 20.63 ± 3.92%

CC1(C)[C@@H]2CC[C@@]1(C)[C@H](NC(=O)CCCCCCC(=O)NO)C2 [compound 11, N^1-Hydroxy-N^8-((1R,2R,4R)-1,7,7-Trimethylbicyclo [2.2.1]heptan-2-yl)octanediamide]
melting point: 94.8 °C
% of Activity, Antiradical Activity [2]: 22.22 ± 1.40%
IC50 (SH-SY5Y cells): 51.9 ± 3.56 µM
IC50 (HEK 293 cells): > 100 µM
IC50 (HDAC6; [3]): 0.69 ± 0.02 µM
% of Activity, Inhibition of LPO, Fe (II) [1]: 28.39 ±7.41%
% of Activity, Inhibition of LPO, t-BHP [1]: 35.96 ± 1.99%
